The supplement of paper PMC10307832

Columns and labels:
Test in all cases: relative viability (nuclei count vs DMSO), 5 days (fraction); higher = more cells survive
AZD5582 + Foretinib = compound: C[C@@H](C(=O)N[C@@H](C1CCCCC1)C(=O)N2CCC[C@H]2C(=O)N[C@@H]3[C@@H](CC4=CC=CC=C34)OCC#CC#CCO[C@@H]5CC6=CC=CC=C6[C@@H]5NC(=O)[C@@H]7CCCN7C(=O)[C@H](C8CCCCC8)NC(=O)[C@H](C)NC)NC [AZD5582] + COc1cc2c(Oc3ccc(NC(=O)C4(C(=O)Nc5ccc(F)cc5)CC4)cc3F)ccnc2cc1OCCCN1CCOCC1 [Foretinib] (partner 0.25 µM)
In short: (§1)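 Lung cancer cell lines in 1536-well plates were dosed by pin tool the day after seeding, either with one drug alone or with a fixed anchor-drug dose plus five library-drug doses (not always all listed) in √10 steps. After 5 days, cells were fixed and their nuclei stained in one step (final 0.05% Triton X-100, 1% formaldehyde, 1 ug/ml Hoechst), then counted on 4× images. Relative viability is the nuclei count in treated wells divided by that in vehicle wells. Values are medians of duplicate plates.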

AZD5582 + Crizotinib = compound: C[C@@H](C(=O)N[C@@H](C1CCCCC1)C(=O)N2CCC[C@H]2C(=O)N[C@@H]3[C@@H](CC4=CC=CC=C34)OCC#CC#CCO[C@@H]5CC6=CC=CC=C6[C@@H]5NC(=O)[C@@H]7CCCN7C(=O)[C@H](C8CCCCC8)NC(=O)[C@H](C)NC)NC [AZD5582] + C[C@@H](Oc1cc(-c2cnn(C3CCNCC3)c2)cnc1N)c1c(Cl)ccc(F)c1Cl [Crizotinib] (partner 1 µM)
In short: as §1

[1] = compound: Cn1nnc2c(C(N)=O)ncn2c1=O [Temozolomide] + CC(=O)Nc1cccc(-n2c(=O)n(C3CC3)c(=O)c3c(Nc4ccc(I)cc4F)n(C)c(=O)c(C)c32)c1 [Trametinib] (partner 0.02 µM)
In short: as §1

[2] = compound: Cn1nnc2c(C(N)=O)ncn2c1=O [Temozolomide] + CS(=O)(=O)N1CCN(Cc2cc3nc(-c4cccc5[nH]ncc45)nc(N4CCOCC4)c3s2)CC1 [Pictilisib] (partner 1 µM)
In short: as §1

## NCI-H2023
AZD5582 + Foretinib; first compound 0.001581 µM
  relative viability: 0.805
AZD5582 + Foretinib; first compound 0.005 µM
  relative viability: 0.851
AZD5582 + Foretinib; first compound 0.01581 µM
  relative viability: 0.802
AZD5582 + Foretinib; first compound 0.05 µM
  relative viability: 0.804
AZD5582 + Crizotinib; first compound 0.001581 µM
  relative viability: 0.567
AZD5582 + Crizotinib; first compound 0.005 µM
  relative viability: 0.635
AZD5582 + Crizotinib; first compound 0.01581 µM
  relative viability: 0.576
AZD5582 + Crizotinib; first compound 0.05 µM
  relative viability: 0.703
[1]; first compound 0.2 µM
  relative viability: 0.568
[1]; first compound 0.6325 µM
  relative viability: 0.635
[1]; first compound 2 µM
  relative viability: 0.468
[1]; first compound 6.325 µM
  relative viability: 0.497
[1]; first compound 20 µM
  relative viability: 0.518
[2]; first compound 0.2 µM
  relative viability: 0.254
[2]; first compound 0.6325 µM
  relative viability: 0.225
[2]; first compound 2 µM
  relative viability: 0.248
[2]; first compound 6.325 µM
  relative viability: 0.207
[2]; first compound 20 µM
  relative viability: 0.265

## NCI-H1915
AZD5582 + Foretinib; first compound 0.001581 µM
  relative viability: 1.06
AZD5582 + Foretinib; first compound 0.005 µM
  relative viability: 1.09
AZD5582 + Foretinib; first compound 0.01581 µM
  relative viability: 1.13
AZD5582 + Foretinib; first compound 0.05 µM
  relative viability: 1.09
AZD5582 + Crizotinib; first compound 0.001581 µM
  relative viability: 0.854
AZD5582 + Crizotinib; first compound 0.005 µM
  relative viability: 0.916
AZD5582 + Crizotinib; first compound 0.01581 µM
  relative viability: 0.915
AZD5582 + Crizotinib; first compound 0.05 µM
  relative viability: 0.882
[1]; first compound 0.2 µM
  relative viability: 0.29
[1]; first compound 0.6325 µM
  relative viability: 0.288
[1]; first compound 2 µM
  relative viability: 0.32
[1]; first compound 6.325 µM
  relative viability: 0.24
[1]; first compound 20 µM
  relative viability: 0.201
[2]; first compound 0.2 µM
  relative viability: 1.11
[2]; first compound 0.6325 µM
  relative viability: 0.914
[2]; first compound 2 µM
  relative viability: 0.962
[2]; first compound 6.325 µM
  relative viability: 0.468
[2]; first compound 20 µM
  relative viability: 0.326

## LK-2
AZD5582 + Foretinib; first compound 0.001581 µM
  relative viability: 0.88
AZD5582 + Foretinib; first compound 0.005 µM
  relative viability: 1.12
AZD5582 + Foretinib; first compound 0.01581 µM
  relative viability: 1.49
AZD5582 + Foretinib; first compound 0.05 µM
  relative viability: 1.25
AZD5582 + Crizotinib; first compound 0.001581 µM
  relative viability: 0.225
AZD5582 + Crizotinib; first compound 0.005 µM
  relative viability: 0.218
AZD5582 + Crizotinib; first compound 0.01581 µM
  relative viability: 0.218
AZD5582 + Crizotinib; first compound 0.05 µM
  relative viability: 0.24
[1]; first compound 0.2 µM
  relative viability: 0.653
[1]; first compound 0.6325 µM
  relative viability: 0.685
[1]; first compound 2 µM
  relative viability: 0.663
[1]; first compound 6.325 µM
  relative viability: 0.653
[1]; first compound 20 µM
  relative viability: 0.489
[2]; first compound 0.2 µM
  relative viability: 0.48
[2]; first compound 0.6325 µM
  relative viability: 0.568
[2]; first compound 2 µM
  relative viability: 0.575
[2]; first compound 6.325 µM
  relative viability: 0.353
[2]; first compound 20 µM
  relative viability: 0.305

## NCI-H1755
AZD5582 + Foretinib; first compound 0.001581 µM
  relative viability: 0.939
AZD5582 + Foretinib; first compound 0.005 µM
  relative viability: 0.98
AZD5582 + Foretinib; first compound 0.01581 µM
  relative viability: 0.846
AZD5582 + Foretinib; first compound 0.05 µM
  relative viability: 1
AZD5582 + Crizotinib; first compound 0.001581 µM
  relative viability: 0.793
AZD5582 + Crizotinib; first compound 0.005 µM
  relative viability: 0.846
AZD5582 + Crizotinib; first compound 0.01581 µM
  relative viability: 0.86
AZD5582 + Crizotinib; first compound 0.05 µM
  relative viability: 0.916
[1]; first compound 0.2 µM
  relative viability: 0.81
[1]; first compound 0.6325 µM
  relative viability: 0.761
[1]; first compound 2 µM
  relative viability: 0.718
[1]; first compound 6.325 µM
  relative viability: 0.664
[1]; first compound 20 µM
  relative viability: 0.549
[2]; first compound 0.2 µM
  relative viability: 0.507
[2]; first compound 0.6325 µM
  relative viability: 0.447
[2]; first compound 2 µM
  relative viability: 0.462
[2]; first compound 6.325 µM
  relative viability: 0.413
[2]; first compound 20 µM
  relative viability: 0.379

## NCI-H650
AZD5582 + Foretinib; first compound 0.001581 µM
  relative viability: 1
AZD5582 + Foretinib; first compound 0.005 µM
  relative viability: 0.958
AZD5582 + Foretinib; first compound 0.01581 µM
  relative viability: 0.91
AZD5582 + Foretinib; first compound 0.05 µM
  relative viability: 0.794
AZD5582 + Crizotinib; first compound 0.001581 µM
  relative viability: 0.581
AZD5582 + Crizotinib; first compound 0.005 µM
  relative viability: 0.393
AZD5582 + Crizotinib; first compound 0.01581 µM
  relative viability: 0.591
AZD5582 + Crizotinib; first compound 0.05 µM
  relative viability: 0.401
[1]; first compound 0.2 µM
  relative viability: 0.954
[1]; first compound 0.6325 µM
  relative viability: 1.02
[1]; first compound 2 µM
  relative viability: 1.38
[1]; first compound 6.325 µM
  relative viability: 0.869
[1]; first compound 20 µM
  relative viability: 1.01
[2]; first compound 0.2 µM
  relative viability: 0.875
[2]; first compound 0.6325 µM
  relative viability: 0.97
[2]; first compound 2 µM
  relative viability: 0.943
[2]; first compound 6.325 µM
  relative viability: 0.865
[2]; first compound 20 µM
  relative viability: 0.908

## NCI-H441
AZD5582 + Foretinib; first compound 0.001581 µM
  relative viability: 0.847
AZD5582 + Foretinib; first compound 0.005 µM
  relative viability: 1.03
AZD5582 + Foretinib; first compound 0.05 µM
  relative viability: 0.883
AZD5582 + Crizotinib; first compound 0.001581 µM
  relative viability: 0.621
AZD5582 + Crizotinib; first compound 0.005 µM
  relative viability: 0.567
AZD5582 + Crizotinib; first compound 0.01581 µM
  relative viability: 0.62
AZD5582 + Crizotinib; first compound 0.05 µM
  relative viability: 0.491
[1]; first compound 0.2 µM
  relative viability: 0.543
[1]; first compound 0.6325 µM
  relative viability: 0.642
[1]; first compound 2 µM
  relative viability: 0.478
[1]; first compound 6.325 µM
  relative viability: 0.425
[1]; first compound 20 µM
  relative viability: 0.459
[2]; first compound 0.2 µM
  relative viability: 0.437
[2]; first compound 0.6325 µM
  relative viability: 0.443
[2]; first compound 2 µM
  relative viability: 0.543
[2]; first compound 6.325 µM
  relative viability: 0.375
[2]; first compound 20 µM
  relative viability: 0.51

## NCI-H3122
AZD5582 + Foretinib; first compound 0.001581 µM
  relative viability: 0.977
AZD5582 + Foretinib; first compound 0.005 µM
  relative viability: 0.994
AZD5582 + Foretinib; first compound 0.01581 µM
  relative viability: 0.933
AZD5582 + Foretinib; first compound 0.05 µM
  relative viability: 0.602
AZD5582 + Crizotinib; first compound 0.001581 µM
  relative viability: 0.264
AZD5582 + Crizotinib; first compound 0.005 µM
  relative viability: 0.305
AZD5582 + Crizotinib; first compound 0.01581 µM
  relative viability: 0.298
AZD5582 + Crizotinib; first compound 0.05 µM
  relative viability: 0.247
[1]; first compound 0.2 µM
  relative viability: 0.222
[1]; first compound 0.6325 µM
  relative viability: 0.291
[1]; first compound 2 µM
  relative viability: 0.246
[1]; first compound 6.325 µM
  relative viability: 0.251
[1]; first compound 20 µM
  relative viability: 0.242
[2]; first compound 0.2 µM
  relative viability: 0.521
[2]; first compound 0.6325 µM
  relative viability: 0.657
[2]; first compound 2 µM
  relative viability: 0.59
[2]; first compound 6.325 µM
  relative viability: 0.57
[2]; first compound 20 µM
  relative viability: 0.553

## COR-L 105
AZD5582 + Foretinib; first compound 0.001581 µM
  relative viability: 1.02
AZD5582 + Foretinib; first compound 0.005 µM
  relative viability: 1.32
AZD5582 + Foretinib; first compound 0.01581 µM
  relative viability: 0.888
AZD5582 + Foretinib; first compound 0.05 µM
  relative viability: 1.16
AZD5582 + Crizotinib; first compound 0.001581 µM
  relative viability: 0.667
AZD5582 + Crizotinib; first compound 0.005 µM
  relative viability: 0.82
AZD5582 + Crizotinib; first compound 0.01581 µM
  relative viability: 0.684
AZD5582 + Crizotinib; first compound 0.05 µM
  relative viability: 0.817
[1]; first compound 0.2 µM
  relative viability: 0.425
[1]; first compound 0.6325 µM
  relative viability: 0.42
[1]; first compound 2 µM
  relative viability: 0.395
[1]; first compound 6.325 µM
  relative viability: 0.431
[1]; first compound 20 µM
  relative viability: 0.402
[2]; first compound 0.2 µM
  relative viability: 0.408
[2]; first compound 0.6325 µM
  relative viability: 0.366
[2]; first compound 2 µM
  relative viability: 0.433
[2]; first compound 6.325 µM
  relative viability: 0.39
[2]; first compound 20 µM
  relative viability: 0.273
